The values below come from publication PMC4785065 (Bioorganic & medicinal chemistry letters, 2016).

This test deals with human topoisomerase IIα (Homo sapiens, UniProt P11388). Description: DNA cleavage inhibition assay. Type of test: biochemical.
Chain of human topoisomerase IIα (P11388 whole entry): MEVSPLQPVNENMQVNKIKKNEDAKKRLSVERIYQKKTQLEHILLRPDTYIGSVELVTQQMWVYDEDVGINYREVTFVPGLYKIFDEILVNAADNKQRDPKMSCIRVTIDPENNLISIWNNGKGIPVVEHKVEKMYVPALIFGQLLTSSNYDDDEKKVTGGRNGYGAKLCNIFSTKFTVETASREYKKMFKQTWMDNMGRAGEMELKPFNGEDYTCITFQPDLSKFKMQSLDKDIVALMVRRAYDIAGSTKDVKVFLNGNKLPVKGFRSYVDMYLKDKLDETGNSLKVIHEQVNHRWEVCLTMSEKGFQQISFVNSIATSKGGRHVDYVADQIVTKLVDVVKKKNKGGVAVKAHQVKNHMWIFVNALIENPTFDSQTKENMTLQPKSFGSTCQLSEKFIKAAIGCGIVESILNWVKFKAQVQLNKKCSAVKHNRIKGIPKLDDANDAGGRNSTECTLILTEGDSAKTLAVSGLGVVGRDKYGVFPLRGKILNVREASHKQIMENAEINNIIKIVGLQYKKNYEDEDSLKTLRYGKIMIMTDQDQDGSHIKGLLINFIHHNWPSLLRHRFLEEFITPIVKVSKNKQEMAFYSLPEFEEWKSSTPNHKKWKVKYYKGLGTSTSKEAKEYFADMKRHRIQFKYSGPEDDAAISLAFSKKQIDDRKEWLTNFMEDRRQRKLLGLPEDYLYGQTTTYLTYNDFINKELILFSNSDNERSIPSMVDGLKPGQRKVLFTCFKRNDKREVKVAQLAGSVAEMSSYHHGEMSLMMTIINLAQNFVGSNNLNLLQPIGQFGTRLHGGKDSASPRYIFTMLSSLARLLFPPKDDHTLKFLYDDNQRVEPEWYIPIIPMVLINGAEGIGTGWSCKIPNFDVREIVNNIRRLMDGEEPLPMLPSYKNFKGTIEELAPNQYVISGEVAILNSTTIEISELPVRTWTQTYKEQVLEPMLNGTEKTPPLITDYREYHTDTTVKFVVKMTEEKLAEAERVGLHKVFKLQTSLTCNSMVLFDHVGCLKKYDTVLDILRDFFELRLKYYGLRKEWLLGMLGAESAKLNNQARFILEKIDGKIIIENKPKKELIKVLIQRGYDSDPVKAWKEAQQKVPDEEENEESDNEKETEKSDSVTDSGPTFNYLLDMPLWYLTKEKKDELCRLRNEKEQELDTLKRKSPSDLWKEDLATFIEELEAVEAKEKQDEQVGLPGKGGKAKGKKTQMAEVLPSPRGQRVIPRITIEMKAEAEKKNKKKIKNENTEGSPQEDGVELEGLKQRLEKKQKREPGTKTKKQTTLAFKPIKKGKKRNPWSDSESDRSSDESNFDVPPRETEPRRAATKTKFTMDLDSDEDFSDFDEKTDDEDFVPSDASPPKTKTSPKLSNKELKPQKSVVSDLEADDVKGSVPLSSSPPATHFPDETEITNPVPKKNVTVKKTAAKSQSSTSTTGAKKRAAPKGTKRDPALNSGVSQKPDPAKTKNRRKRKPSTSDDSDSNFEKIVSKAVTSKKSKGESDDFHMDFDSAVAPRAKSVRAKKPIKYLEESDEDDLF

The molecule `Cc1c2ccncc2c(C)c2c1[nH]c1ccccc12` [ET, 5,11-dimethyl-6H-pyrido[4,3-b]carbazole] gave an IC50 of over 200 µM.

By IC50 is commonly meant the concentration that inhibits the measured activity by half. A lower IC50 goes with inhibition by little substance.
